Tests used:
[1] = tested on: C. sporogenes, C. indolis, and C. HGF2 (innocuum); experiment: Scanning electron microscopy of symbiotic bacteria; format: cell-based; conditions: 2.5 μM isoalloLCA, 5 hours, WCA medium
Protocol: FIG. 16B is a set of photographs showing typical results obtained by observing C. difficile 630, C. sporogenes, C. indoli, and C. HGF2 (innocuum) with a scanning electron microscope after culturing for 5 hours in a WCA medium containing control or 2.5 μM isoalloLCA. […] Scale bars indicate 5.0 μm and 1.0 μm. The arrowheads indicate a shape change after isoalloLCA treatment.
(§1) Bacterial cultures incubated with or without isoalloLCA were collected after 5 hr incubation for electron microscopy samples. For scanning electron microscopy, 10-30 μL of culture was spotted on the Nano percolator membrane (JEOL) and fixed in freshly prepared 2.5% glutaraldehyde solution. After overnight fixation at 4° C., samples were washed in 0.1 M phosphate buffer (pH 7.4, Muto Pure Chemicals), fixed with 1.0% osmium tetroxide (TAAB Laboratories) for 2 hr at 4° C., and treated with a series of increasing concentrations of ethanol. Samples were dried up with critical point dryer (CPD300, Leica Biosystems) and coated with about 2 nm thickness of osmium using a conductive osmium coater (Neoc-ST, Meiwafosis). SEM images were acquired using the SU6600 (Hitachi High Tech) at electron voltage of 5 keV.

[2] = tested on: Treg cells; conditions: reported [30]; cited from earlier work
[3] = tested on: gram-negative symbiotic bacteria; experiment: Growth inhibition of intestinal symbiotic bacteria; format: cell-based; conditions: most gram-negative symbiotic bacteria such as Bacteroides; WCA and BHI media
[4] = tested on: gram-negative pathogens; experiment: Bacterial growth inhibition assay, gram-negative pathogen panel; format: cell-based; conditions: all bacteria in the gram-negative pathogen panel
[5] = tested on: Lactobacillus strain; experiment: Growth inhibition of intestinal symbiotic bacteria; format: cell-based
[6] = tested on: gram-positive symbiotic bacteria; experiment: Growth inhibition of intestinal symbiotic bacteria; format: cell-based
[7] = tested on: C. difficile VPI10463; experiment: Bacterial growth inhibition assay (OD 600); format: cell-based, Clostridioides difficile; conditions: toxin-producing strain
From the text: (§2) Clostridioides difficile strain 630 (ATCC BAA-1382), Clostridioides difficile VPI 10463 (ATCC 43255), vancomycin-resistant Enterococcus faecium (ATCC 700221), Streptococcus dysgalactiae subsp. equisimilis (ATCC 12394), carbapenemase-resistant Klebsiella pneumoniae (ATCC BAA-1705), and Salmonella enterica subsp. enterica (ATCC 14028) were purchased from the American Type Culture Collection (ATCC).
(§3) From fresh colonies grown on BHK blood agar plates (Kyokuto), a primary suspension adjusted to OD 600 of 0.63 was prepared in WCA medium. Subsequently, the secondary suspension was prepared by diluting 100 μL of primary suspension into a total of 2.4 mL of medium. 10 μL of secondary suspension was inoculated to a total of 200 μL of medium containing varying concentrations ([…], 6.25, 12.5, 25, and 50 μM) of bile acids; DCA, LCA, 3-oxoLCA, 3-oxoalloLCA, isoLCA, alloLCA, and isoalloLCA. The growth of bacteria was monitored every 0.5-1 hr by OD 600 measurement using a microplate reader (Sunrise Thermo, Tecan) set at 37° C. with a 60 see shaking before each time point. For determining the minimal inhibitory concentration, 10 μL of secondary suspension was inoculated into a total of 200 μL of medium containing 0.25 to 50 μM of isoalloLCA.

[8] = tested on: VRE; experiment: Electron microscopy (SEM/TEM) after isoalloLCA treatment; format: cell-based, Enterococcus faecium; conditions: 8 μM isoalloLCA, 5 hours, WCA medium
Protocol: (§4) FIG. 4C is typical scanning electron microscope images (SEM, left panels) and transmission electron microscope images (TEM, right panels) when C. difficile 630 and VRE were cultured for 5 hours in a WCA medium containing or not containing 8 μM isoalloLCA. The scale bars indicate 1.0 μm (SEM), 200 nm (C. difficile 630 TEM), and 500 nm (VRE TEM). The arrows indicate the shape change after isoalloLCA treatment.
as §1
(§5) For transmission electron microscopy, microbial pellets were prepared by centrifugation (13,000 rpm, 2 min) from 25 mL bacterial cultures. […]

[9] = tested on: C. difficile 630; experiment: Bacterial growth inhibition assay (OD 600); format: cell-based, Clostridioides difficile
From the text: as §2, §3
Therefore, next, it was investigated whether 3-oxoLCA and isoalloLCA had the ability to inhibit the growth of C. difficile. […]

[10] = tested on: C. difficile 630; experiment: Electron microscopy (SEM/TEM) after isoalloLCA treatment; format: cell-based, Clostridioides difficile; conditions: 8 μM isoalloLCA, 5 hours, WCA medium
Protocol: as §4, §1, §5

[11] = tested on: vancomycin-resistant Enterococcus faecium (VRE); experiment: Bacterial growth inhibition assay (OD 600); format: cell-based
From the text: as §2, §3

[12] = tested on: human fecal microbiota; experiment: Culturing human feces with bile acids, 16S rRNA gene sequencing; format: cell-based; conditions: 50 μM, 48 hr
Protocol: Human fecal culture was conducted in 96-deep well plates (Treff Lab) using stool samples obtained from young and healthy donors. […] Fecal cultures with a final concentration of 50 μM bile acids (LCA, 3-oxoLCA, and isoalloLCA) were incubated anaerobically for 48 hr at 37° C. DNA was extracted from the fecal sample culture for 16S metagenomic sequencing as described above.
In addition, in order to assess the effects of isoalloLCA on the complex normal intestinal microbiota, human fecal microbiota from young, healthy sample donors were cultured using isoalloLCA, 3-oxoLCA, LCA, or control systems and analyzed for bacterial microbiota changes by 16S rRNA gene sequencing.

[13] = tested on: T helper 17 (TH17) cells; conditions: reported [30]; cited from earlier work
[14] = tested on: Clostridioides difficile; conditions: known [36, 40, 41]; cited from earlier work
[15] = tested on: prostate cancer cell; conditions: by reducing E-cadherin expression; reported [63, 64]; cited from earlier work
[16] = target: T1, androgen receptor (AR) (Homo sapiens, UniProt P10275); conditions: reported [28, 63, 64]; cited from earlier work
T1 sequence (P10275 1-920): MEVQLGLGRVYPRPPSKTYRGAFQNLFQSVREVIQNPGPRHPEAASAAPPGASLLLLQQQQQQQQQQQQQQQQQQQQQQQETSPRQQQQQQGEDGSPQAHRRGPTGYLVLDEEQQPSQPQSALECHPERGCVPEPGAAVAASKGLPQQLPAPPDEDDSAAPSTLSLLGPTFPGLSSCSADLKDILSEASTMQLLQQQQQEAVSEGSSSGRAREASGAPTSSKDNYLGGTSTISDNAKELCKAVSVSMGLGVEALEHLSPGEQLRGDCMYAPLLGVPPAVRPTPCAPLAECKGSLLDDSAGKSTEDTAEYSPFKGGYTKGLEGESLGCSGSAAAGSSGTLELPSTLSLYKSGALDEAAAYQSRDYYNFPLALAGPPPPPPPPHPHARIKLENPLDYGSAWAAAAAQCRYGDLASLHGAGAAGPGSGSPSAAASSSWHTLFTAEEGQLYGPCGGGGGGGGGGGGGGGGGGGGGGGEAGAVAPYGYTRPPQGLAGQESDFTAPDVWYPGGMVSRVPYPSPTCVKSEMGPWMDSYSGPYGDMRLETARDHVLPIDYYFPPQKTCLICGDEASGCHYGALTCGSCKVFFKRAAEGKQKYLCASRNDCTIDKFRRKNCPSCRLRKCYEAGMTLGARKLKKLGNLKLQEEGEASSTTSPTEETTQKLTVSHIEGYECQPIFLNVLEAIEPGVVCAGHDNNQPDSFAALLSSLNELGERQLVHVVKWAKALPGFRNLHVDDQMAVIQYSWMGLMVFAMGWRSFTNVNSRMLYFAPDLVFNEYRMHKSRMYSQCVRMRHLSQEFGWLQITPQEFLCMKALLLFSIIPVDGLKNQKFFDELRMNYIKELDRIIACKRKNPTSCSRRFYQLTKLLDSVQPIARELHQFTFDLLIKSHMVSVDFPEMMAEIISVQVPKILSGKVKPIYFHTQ

[17] = target: estrogen receptor R (ER) (Homo sapiens, UniProt Q92731); conditions: reported [63, 64]; cited from earlier work
[18] = compared to other bile acid compounds

Sequence of estrogen receptor R (ER) (Q92731 whole entry): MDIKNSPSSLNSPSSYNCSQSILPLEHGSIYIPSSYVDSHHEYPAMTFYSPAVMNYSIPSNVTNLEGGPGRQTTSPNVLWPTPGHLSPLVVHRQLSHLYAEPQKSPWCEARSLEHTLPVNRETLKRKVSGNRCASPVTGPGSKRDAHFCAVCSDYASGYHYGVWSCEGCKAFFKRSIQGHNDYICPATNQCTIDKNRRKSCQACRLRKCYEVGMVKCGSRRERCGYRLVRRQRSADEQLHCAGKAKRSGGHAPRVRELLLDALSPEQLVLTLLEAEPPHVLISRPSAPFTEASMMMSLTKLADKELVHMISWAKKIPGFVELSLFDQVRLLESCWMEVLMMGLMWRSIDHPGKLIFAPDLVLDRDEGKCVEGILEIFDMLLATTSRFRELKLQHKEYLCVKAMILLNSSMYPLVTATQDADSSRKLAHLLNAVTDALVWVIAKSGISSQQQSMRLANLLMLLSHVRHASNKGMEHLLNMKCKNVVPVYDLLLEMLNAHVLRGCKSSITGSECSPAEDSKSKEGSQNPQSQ

C[C@H](CCC(=O)O)[C@H]1CC[C@H]2[C@@H]3CC[C@H]4C[C@@H](O)CC[C@]4(C)[C@H]3CC[C@]12C [isoalloLCA, Iso-allo-lithocholic acid]
cell wall structure by scanning electron microscopy [1]: cell wall structure of the symbiotic bacteria was maintained
Treg cell induction [2]: induces Treg cells
effect on growth [3]: did not significantly affect the growth
resistant at the highest concentration tested [4]: > 50 µM
resistance to the inhibitory effect [5]: highly resistant
MIC90 value of the symbiotic strains relative to pathogens [6]: generally higher than that of the pathogens
resistance of symbiotic strain in BHI medium compared to WCA medium ([6]; BHI medium rich in peptone and amino acids): increased resistance
effect on growth ([6]; WCA and BHI media): reliably inhibited the growth
growth inhibition [7]: Strong growth inhibition
bactericidal effect, morphological and hyperfine structure changes [8]: bactericidal and results in morphological changes and hyperfine structure changes
minimum inhibitory concentration (MIC90) required to prevent growth of 90% or more ([9]; WCA medium): 2.0 µM
growth inhibition ([9]; in vitro, optical density over time): strongly inhibited the growth
bactericidal effect, morphological and hyperfine structure changes [10]: bactericidal and results in morphological changes and hyperfine structure changes
growth inhibition [11]: Strong growth inhibition
change in gram-negative bacteria (Bacteroides, Alistipes) [12, 18]: corresponding increase
change in gram-positive bacteria (Clostridium, Faecalibacterium, Bifidobacterium, Streptococcus) [12, 18]: more pronounced decrease
α-diversity (Shannon index) of fecal culture ([12]; feces of young healthy donors): not significantly affected
bacterial community structure ([12]; phylum level): clear widespread change in the bacterial community structure

C[C@H](CCC(=O)O)[C@H]1CC[C@H]2[C@@H]3CC[C@@H]4C[C@@H](O)CC[C@]4(C)[C@H]3CC[C@]12C [isoLCA, Iso-lithocholic acid]
TH17 cell suppression [13]: suppress T helper 17 (TH17) cells
inhibition of growth of Clostridioides difficile [14]: inhibiting the growth

C[C@]12CC[C@H](O)C[C@@H]1CC[C@@H]1[C@@H]2CC[C@]2(C)[C@@H](O)CC[C@@H]12 [3β-androstanediol]
prostate cancer cell migration [15]: inhibits prostate cancer cell migration
binding to AR [16]: without binding to AR
estrogen receptor activation [17]: activates estrogen receptor R (ER)

C[C@H](CCC(=O)O)[C@H]1CC[C@H]2[C@@H]3CC[C@@H]4CC(=O)CC[C@]4(C)[C@H]3CC[C@]12C [St 3-oxoLCA, 3-Oxo-lithocholic acid, reference compound]
TH17 cell suppression [13]: suppress T helper 17 (TH17) cells

From patent US20240325458A1, “COMPOSITION FOR PRODUCING BILE ACIDS” (priority 2020, published 2024)
